These results are taken from ChEMBL document CHEMBL2331126, “Alkyl esters of gallic acid as anticancer agents: a review” (Eur J Med Chem, 2013).

Converted amounts (≈) assume the structure as drawn.

In test [1] the test system is MDA-MB-231. Kind of test: Cytotoxicity against human MDA-MB-231 cells. Type of test: functional, cell-based.
Test [2] relates to CCRF-CEM. Kind of test: Cytotoxicity against human CEM cells. Type of test: cell-based.
Test [3] concerns L1210. Description: Cytotoxicity against mouse L1210 cells. The class given is functional, cell-based.
In test [4] the test system is B16-F10. Description: Cytotoxicity against mouse B16F10 cells. Type of test: functional, cell-based.
Test [5] concerns L929. Description: Cytotoxicity against mouse L929 cells. The class given is functional, cell-based.
Test [6] in a line: Cytotoxicity against mouse WEHI231 cells. Type of test: functional, cell-based.
The subject of test [7] is HL-60. Kind of test: Cytotoxicity against human HL60 cells. The class given is functional, cell-based.
Test [8] deals with U-251. Description: Antimigratory activity against human U251 cells at 40 ug/ml after 8 hrs by wound closure assay. The class given is functional.
Test [9] deals with U-251. Description: Antimigratory activity against human U251 cells at 30 ug/ml after 8 hrs by wound closure assay. The class given is functional.
The nature of test [10]: Antimigratory activity against human U87 cells at 40 ug/ml after 8 hrs by wound closure assay. Type of test: functional, U-87MG ATCC.
A short description of test [11]: Antimigratory activity against human U87 cells at 30 ug/ml after 8 hrs by wound closure assay. The class given is functional, U-87MG ATCC.
The target in test [12] is Disintegrin and metalloproteinase domain-containing protein 17 (Homo sapiens) (UniProt P78536). Description: Inhibition of ADAM17 alpha-secretase activity in human […] cells using amyloid beta precursor protein as substrate at 40 ug/ml after 24 hrs by fluorimetric analysis. The class given is cell-based.
Sequence of Disintegrin and metalloproteinase domain-containing protein 17 (Homo sapiens) (P78536 whole entry, the tested form may be a part): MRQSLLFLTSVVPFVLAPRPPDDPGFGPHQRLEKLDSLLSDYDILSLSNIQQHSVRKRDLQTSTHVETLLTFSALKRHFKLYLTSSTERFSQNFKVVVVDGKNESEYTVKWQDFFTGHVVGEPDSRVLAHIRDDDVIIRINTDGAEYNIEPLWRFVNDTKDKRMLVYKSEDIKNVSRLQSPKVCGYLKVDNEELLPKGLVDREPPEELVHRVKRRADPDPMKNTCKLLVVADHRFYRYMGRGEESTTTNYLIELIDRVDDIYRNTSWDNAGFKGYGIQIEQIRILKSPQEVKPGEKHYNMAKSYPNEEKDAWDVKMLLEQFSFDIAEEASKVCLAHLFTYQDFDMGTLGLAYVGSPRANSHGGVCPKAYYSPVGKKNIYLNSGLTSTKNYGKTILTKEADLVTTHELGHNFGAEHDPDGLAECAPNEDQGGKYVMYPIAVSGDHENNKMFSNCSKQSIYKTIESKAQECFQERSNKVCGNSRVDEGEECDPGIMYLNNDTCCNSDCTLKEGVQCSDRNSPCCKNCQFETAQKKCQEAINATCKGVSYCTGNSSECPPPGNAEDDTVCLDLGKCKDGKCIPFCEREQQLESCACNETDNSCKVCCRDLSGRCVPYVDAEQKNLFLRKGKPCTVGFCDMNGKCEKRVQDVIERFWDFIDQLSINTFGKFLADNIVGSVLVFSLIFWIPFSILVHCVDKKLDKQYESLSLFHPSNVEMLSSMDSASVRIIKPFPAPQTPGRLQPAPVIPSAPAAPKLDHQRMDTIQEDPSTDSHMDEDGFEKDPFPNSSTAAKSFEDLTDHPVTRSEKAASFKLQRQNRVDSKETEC
Test [13] has the same target. Kind of test: Inhibition of ADAM17 alpha-secretase activity in human […] cells using amyloid beta precursor protein as substrate at 30 ug/ml after 24 hrs by fluorimetric analysis. Type of test: cell-based.
For test [14] the target is unchanged. Kind of test: Inhibition of ADAM17 alpha-secretase activity in human […] cells using amyloid beta precursor protein as substrate at 20 ug/ml after 24 hrs by fluorimetric analysis. The class given is cell-based.
Test [15] in a line: Cytotoxicity against rat fibroblast cells. Type of test: cell-based.
Test [16] relates to KB. Description: Cytotoxicity against human KB cells. The class given is functional, cell-based.
For test [17], the system named is K562. Description: Cytotoxicity against human imatinib-resistant K562 cells. The class given is functional, cell-based.
In test [18] the test system is K562. Description: Cytotoxicity against human K562 cells. Type of test: functional, cell-based.
Test [19] has as its system A549. Description: Cytotoxicity against human A549 cells. The class given is functional, cell-based.
In test [20] the test system is Calu-6. Description: Cytotoxicity against human Calu6 cells. Type of test: functional, cell-based.
Test [21] has as its system HeLa. Kind of test: Cytotoxicity against human HeLa cells. Type of test: functional, cell-based.
The nature of test [22]: Cytotoxicity against human PLC/PRF/5 cells. Type of test: functional, cell-based.
The nature of test [23]: Cytotoxicity against rat dRLh-84 cells. The class given is functional, cell-based.
The nature of test [24]: Cytotoxicity against human HL60RG cells. Type of test: functional, cell-based.
The test system of test [25] is P388-D1 (Mus musculus). Description: Cytotoxicity against mouse P388D1 cells.
Test [26] is described as follows: Cytotoxicity against rat endothelial cells. The conditions noted are these: Endothelial cell.

As a reminder, the IC50 is the concentration needed to halve the response being measured. As for `CCCCCCCCCCCCOC(=O)c1cc(O)c(O)c(O)c1` [DODECYL GALLATE], the half-maximal inhibitory concentration (IC50) was 1 µM in test [1]; 47.4 µM in test [2]; 10.9 µM in test [3]; 48 µM in test [4]; 1 µM in [5]; 1 µM in test [6]. In addition, in [7], the IC50 was determined as 33 µM.
In the case of `CCCCCCCCCCOC(=O)c1cc(O)c(O)c(O)c1` [DECYL GALLATE], the IC50 is 9.8 µM in test [2], 12.2 µM in test [3] and 82 µM in [4].
A word on the inhibition: it is the share of the control response that was lost under treatment. Low readings indicate little suppression, high ones strong suppression. With `O=C(O)c1cc(O)c(O)c(O)c1` [GALLIC ACID], the Activity was found to be 31% in [8], 51% in [9], 30% in [10] and 29% in [11]. The inhibition in [12] was found to be 38.9%; in test [13], 43.5%; in [14], 47.9%. In addition, the IC50 in test [15] was over 20 µg/mL; in [16], 13.2 µg/mL (≈ 77.6 µM); in test [17] it was 4.75 µM; in test [18], 33 µM; in test [5] it was 250 µM; in test [6] it was 40 µM. Moreover, the half-inhibitory concentration (IC50) in test [19] was determined as 100 µM; in test [20] it was 10 µM; in test [21], 358 µM; in test [22], 387 µM; in test [23], 364 µM; in [7], 300 µM. For the same molecule, the IC50 in test [24] is 317 µM; in test [25], 282 µM; in test [26] it was over 20 µg/mL.
With `CCCCCCCCCCCCCCOC(=O)c1cc(O)c(O)c(O)c1` [TETRADECYL GALLATE], the half-maximal inhibitory concentration (IC50) is over 50 µM in test [2], 8.5 µM in [3] and 60 µM in test [4].
For the molecule `CCCOC(=O)c1cc(O)c(O)c(O)c1` [PROPYL GALLATE], the IC50 in [5] was determined as 40 µM; in [6], 12 µM; in [21] it was 800 µM.
`CCCCCCCCOC(=O)c1cc(O)c(O)c(O)c1` [OCTYL_GALLATE]: the IC50 in test [2] amounted to 50 µM; in test [3] it was 22 µM; in test [4] it was 45 µM; in test [5], 1 µM; in test [6], 1.5 µM.
